# Assay results taken from patent publication US20180028477A1, “TREATMENT OF CARDIAC REMODELING AND OTHER HEART CONDITIONS” (C & C BIOPHARMA, LLC, priority 2013, published 2018).
# “Also recorded” adds a separate entry of the source.
# Legend:
# [1] = test system: Neonatal Rat Ventricular Myocytes (NRVMs); experiment: Serum (FBS)-induced hypertrophy of Neonatal Rat Ventricular Myocytes in vitro; format: cell-based; details: for viability: NRVMs (not shown); for order of potency for inhibitors / growth response to Fetal Bovine Serum / serum-stimulated myocyte growth (hypertrophy): NRVMs; for order of potency for inhibitors: FBS-induced growth; for growth response to Fetal Bovine Serum / serum-stimulated myocyte growth (hypertrophy): pre-treatment with a range of doses
# Description: The cells were also treated with DMSO (light gray bars) or a vehicle (dark gray bars) as a negative control. The order of potency for inhibitors was DMSO<7MI<TSA<8MI. Viability was unchanged (not shown).
# Next, the ability of 7MI and 8MI to inhibit hypertrophy in vitro was tested (FIG. 2A). […] However, fetal calf serum, which contained a rich variety of growth factors, was chosen as the most robust and multifactorial stimulus for cardiomyocyte growth available, reasoning that a similarly robust and powerful inhibitor would be required to block this hypertrophy.
# [2] = Metabolic stability in human liver microsomes fortified with NADPH (Example 11); format: in vitro ADME; design: CLint scaled: dose or concentration left out as unconfirmed; details: for K (rate constant): 0.5 mg/mL human liver microsomes, 1 mM NADPH, pH 7.4, 37° C.; for Clhp (hepatic clearance) / CLint scaled / metabolic stability / clearance in the liver, in words / intrinsic clearance (Clint) rate, fold higher than 7MI / intrinsic clearance (Clint) rate, fold higher than 8MI: human liver microsomes; for CLint scaled: pH 7.4, from mono-exponential decay model, read-out: Clint (intrinsic clearance); for metabolic stability / clearance in the liver, in words: comparison of 7MI, 8MI, BML-210, TSA; for intrinsic clearance (Clint) rate, fold higher than 7MI: ratio to 7MI; for intrinsic clearance (Clint) rate, fold higher than 8MI: ratio to 8MI
# Source text: Drug clearance is a measure of the ability of the body or an organ to eliminate a drug from the blood circulation. Systemic clearance is a measure of the ability of the entire body to eliminate the drug. Organ clearance is a measure of the ability of a particular organ (hepatic or renal) to eliminate the drug. For hepatic clearance, the liver is the major organ for drug metabolism and the key organ for drug clearance. Human liver microsomes (HLM) fortified with NADPH is a standard way to measure in vitro metabolism and predict in vivo clearance. CLint (intrinsic clearance) is the link between in vitro and in vivo studies, which can be estimated based on the mono-exponential decay model: Ct=C X e^−kt.
# Human liver microsomes fortified with NADPH is a standard approach to evaluate metabolic stability mediated by CYP (cytochrome P450) enzymes in vitro. The reaction mixture (0.4 mL) contained 0.5 mg/mL human liver microsomes, 100 mM phosphate buffer (pH 7.4) and […] of test compounds. The mixture was first warmed up for 5 min in a 37° C. shaking water bath and then NADPH at a final concentration of 1 mM was added to initiate the reaction. Aliquots […] were taken at specified time points and mixed with ice-cold methanol (containing internal standard) to stop the reaction. The mixture was vortexed briefly and centrifuged for protein precipitation. An aliquot of […] supernatant was subject to LC-MS/MS analysis. The percentage of compound disappearance was used to calculate the rate of metabolism.
# HDACs = details: background statement; cited from earlier work
# [3] = mice, previously reported, cited from earlier work
SMILES,viability [1],order of potency for inhibitors [1],growth response to Fetal Bovine Serum / serum-stimulated myocyte growth (hypertrophy) [1],K (rate constant) [2],Clhp (hepatic clearance) [2],CLint scaled [2],"metabolic stability / clearance in the liver, in words [2]","intrinsic clearance (Clint) rate, fold higher than 7MI [2]","intrinsic clearance (Clint) rate, fold higher than 8MI [2]",HDAC inhibition range (HDACs),survival at the tolerated daily dosage ([3]; 1 mg/kg),tolerated daily dosage [3]
Nc1ccccc1NC(=O)CCCCCC(=O)Nc1ccc(Br)cc1 [7MI],unchanged,DMSO<7MI<TSA<8MI,sufficient to block myocyte hypertrophy; also recorded: depressed growth response,0.0027 min⁻¹,2.45 mL/min/kg,2.78 mL/min/kg,,,,,,
"Nc1ccccc1NC(=O)CCCCCCC(=O)Nc1ccccc1 [BML-210, reference compound]",,,,0.0116 min⁻¹,7.57 mL/min/kg,11.9 mL/min/kg,high clearance compound,4.3 fold,2.5 fold,,,
O=C(CCCCCN1C(=O)c2cccc3cccc(c23)C1=O)NO [Scriptaid],,,,,,,,,,low nanomolar range,,
"CC(/C=C/C(=O)NO)=C\[C@@H](C)C(=O)c1ccc(N(C)C)cc1 [TSA, Trichostatin A, reference compound]",unchanged,DMSO<7MI<TSA<8MI,depressed growth response,0.0088 min⁻¹,6.30 mL/min/kg,9.05 mL/min/kg,metabolically cleared much faster than 7MI or 8MI,3.2 fold,1.9 fold,low nanomolar range,not all of the mice survived,1 mg/kg
